Results taken from patent publication US11304949B2, “Treatment of hidradenitis suppurativa using JAK inhibitors” (Incyte Corporation, priority 2018, dated 2022).
pIC50: −log10 of the molar value. One block for each compound: values may come before it.

Key:
[1] = target: human JAK1 (a.a. 837-1142) (Homo sapiens, UniProt P23458); test: In vitro JAK kinase assay (HTRF), JAK1; assay type: biochemical; conditions: 1 mM ATP
[2] = system: human JAK1 (a.a. 837-1142); test: In vitro JAK kinase assay (HTRF), JAK1; assay type: biochemical; conditions: IC50 ratio at 1 mM ATP
[3] = system: Transformed human keratinocyte (HaCaT) cells stimulated with TNFα and IFNγ; test: JAK inhibitors in TNFα/IFNγ stimulated keratinocytes, gene expression (QuantiGene Plex); conditions: 24 hours, normalized to HPRT1, mean ± standard error
[4] = system: Transformed human keratinocyte (HaCaT) cells stimulated with TNFα and IFNγ; test: JAK inhibitors in TNFα/IFNγ stimulated keratinocytes, inflammatory mediators in media (ProCarta Multiplex Immunoassay); conditions: mean ± 1 standard error
[5] = TNFα (25 ng/mL) and IFNγ (25 ng/mL), drug 25 nM
[6] = TNFα (25 ng/mL) and IFNγ (25 ng/mL), drug 50 nM
[7] = TNFα (25 ng/mL) and IFNγ (25 ng/mL), drug 100 nM
[8] = TNFα (25 ng/mL) and IFNγ (25 ng/mL), drug 200 nM
[9] = TNFα (25 ng/mL) and IFNγ (25 ng/mL) stimulation, drug 25 nM
[10] = TNFα (25 ng/mL) and IFNγ (25 ng/mL) stimulation, drug 50 nM
[11] = TNFα (25 ng/mL) and IFNγ (25 ng/mL) stimulation, drug 100 nM
[12] = TNFα (25 ng/mL) and IFNγ (25 ng/mL) stimulation, drug 200 nM

pIC50 [1]: > 8.00
JAK2/JAK1 [2]: >10
Compound: N#CC[C@]1(n2cc(-c3ncnc4[nH]ccc34)cn2)C[C@H](N2CCC(Oc3cc(CCO)cc(C(F)(F)F)n3)CC2)C1 [Compound 26, {trans-3-(4-{[4-(2-hydroxyethyl)-6-(trifluoromethyl)pyridin-2-yl]oxy}piperidin-1-yl)-1-[4-(7H-pyrrolo[2,3-d]pyrimidin-4-yl)-1H-pyrazol-1-yl]cyclobutyl}acetonitrile]

pIC50 [1]: > 8.00
JAK2/JAK1 [2]: >10
Compound: C[C@@H](CO)NCc1cc(OC2CCN([C@H]3C[C@](CC#N)(n4cc(-c5ncnc6[nH]ccc56)cn4)C3)CC2)nc(C(F)(F)F)c1 [Compound 23, {trans-3-(4-{[4-({[(1S)-2-hydroxy-1-methylethyl]amino}methyl)-6-(trifluoromethyl)pyridin-2-yl]oxy}piperidin-1-yl)-1-[4-(7H-pyrrolo[2,3-d]pyrimidin-4-yl)-1H-pyrazol-1-yl]cyclobutyl}acetonitrile]

pIC50 [1]: > 8.00
JAK2/JAK1 [2]: >10
Compound: C[C@H](O)CNCc1cc(OC2CCN([C@H]3C[C@](CC#N)(n4cc(-c5ncnc6[nH]ccc56)cn4)C3)CC2)nc(C(F)(F)F)c1 [Compound 25, {trans-3-(4-{[4-({[(2S)-2-hydroxypropyl]amino}methyl)-6-(trifluoromethyl)pyridin-2-yl]oxy}piperidin-1-yl)-1-[4-(7H-pyrrolo[2,3-d]pyrimidin-4-yl)-1H-pyrazol-1-yl]cyclobutyl}acetonitrile]

pIC50 [1]: > 8.00
JAK2/JAK1 [2]: >10
Compound: C[C@@H](O)CNCc1cc(OC2CCN([C@H]3C[C@](CC#N)(n4cc(-c5ncnc6[nH]ccc56)cn4)C3)CC2)nc(C(F)(F)F)c1 [Compound 24, {trans-3-(4-{[4-({[(2R)-2-hydroxypropyl]amino}methyl)-6-(trifluoromethyl)pyridin-2-yl]oxy}piperidin-1-yl)-1-[4-(7H-pyrrolo[2,3-d]pyrimidin-4-yl)-1H-pyrazol-1-yl]cyclobutyl}acetonitrile]

Further lines, the compound ahead of its results:

Compound: N#CCC1(n2cc(-c3ncnc4[nH]ccc34)cn2)CN([C@H]2CC[C@@H](Oc3cc(CCO)nc(C(F)(F)F)n3)CC2)C1 [Compound 18, {1-(cis-4-{[6-(2-hydroxyethyl)-2-(trifluoromethyl)pyrimidin-4-yl]oxy}cyclohexyl)-3-[4-(7H-pyrrolo[2,3-d]pyrimidin-4-yl)-1H-pyrazol-1-yl]azetidin-3-yl}acetonitrile]
pIC50 [1]: > 8.00
JAK2/JAK1 [2]: >10

Compound: N#CCC1(n2cc(-c3ncnc4[nH]ccc34)cn2)CN([C@H]2CC[C@@H](Oc3cc(CN4CC[C@H](O)C4)cc(C(F)(F)F)n3)CC2)C1 [Compound 22, {1-(cis-4-{[4-{[(3S)-3-hydroxypyrrolidin-1-yl]methyl}-6-(trifluoromethyl)pyridin-2-yl]oxy}cyclohexyl)-3-[4-(7H-pyrrolo[2,3-d]pyrimidin-4-yl)-1H-pyrazol-1-yl]azetidin-3-yl}acetonitrile]
pIC50 [1]: > 8.00
JAK2/JAK1 [2]: >10

Compound: Cc1n[nH]c(C)c1-c1cnn(C2(CC#N)CN(c3cc(F)c(C(=O)N[C@@H](C)C(F)(F)F)cc3F)C2)c1 [Compound 4]
IL-1α MFI [3, 5]: 1370.52 ± 35.28
IL-6 MFI [3, 5]: 135.32 ± 3.36
JAK1 MFI [3, 5]: 206.29 ± 6.84
JAK2 MFI [3, 5]: 114.94 ± 2.16
JAK3 MFI [3, 5]: 1.02 ± 0.19
STAT1 MFI [3, 5]: 3111.17 ± 182.20
STAT3 MFI [3, 5]: 1557.84 ± 58.15
STAT4 MFI [3, 5]: 5.65 ± 0.44
STAT5A MFI [3, 5]: 22.82 ± 1.77
STAT6 MFI [3, 5]: 1020.89 ± 23.57
TYK2 MFI [3, 5]: 283.97 ± 8.59
IL-1α MFI [3, 6]: 1308.7 ± 45.12
IL-6 MFI [3, 6]: 128.14 ± 6.83
JAK1 MFI [3, 6]: 194.2 ± 8.24
JAK2 MFI [3, 6]: 107.16 ± 2.86
JAK3 MFI [3, 6]: 0.99 ± 0.16
STAT1 MFI [3, 6]: 3058.64 ± 154.86
STAT3 MFI [3, 6]: 1519.61 ± 69.92
STAT4 MFI [3, 6]: 5.41 ± 0.33
STAT5A MFI [3, 6]: 20.71 ± 1.77
STAT6 MFI [3, 6]: 982.62 ± 14.34
TYK2 MFI [3, 6]: 273.68 ± 7.44
IL-1α MFI [3, 7]: 1194.29 ± 12.27
IL-6 MFI [3, 7]: 112.13 ± 3.37
JAK1 MFI [3, 7]: 193.28 ± 4.55
JAK2 MFI [3, 7]: 95.51 ± 3.13
JAK3 MFI [3, 7]: 0.99 ± 0.15
STAT1 MFI [3, 7]: 3035.33 ± 122.14
STAT3 MFI [3, 7]: 1457.24 ± 54.48
STAT4 MFI [3, 7]: 5.32 ± 0.46
STAT5A MFI [3, 7]: 18.44 ± 1.85
STAT6 MFI [3, 7]: 943.66 ± 25.99
TYK2 MFI [3, 7]: 266 ± 6.82
IL-1α MFI [3, 8]: 1151.31 ± 20.01
IL-6 MFI [3, 8]: 101.17 ± 2.91
JAK1 MFI [3, 8]: 182.86 ± 4.07
JAK2 MFI [3, 8]: 91.17 ± 2.15
JAK3 MFI [3, 8]: 0.85 ± 0.15
STAT1 MFI [3, 8]: 2984.14 ± 163.4
STAT3 MFI [3, 8]: 1483.1 ± 51.73
STAT4 MFI [3, 8]: 5.04 ± 0.36
STAT5A MFI [3, 8]: 17.64 ± 1.46
STAT6 MFI [3, 8]: 966.51 ± 12.3
TYK2 MFI [3, 8]: 263.49 ± 5.05
IL-1α MFI ([3]; no stimulation, drug 200 nM): 88.72 ± 5.90
IL-6 MFI ([3]; no stimulation, drug 200 nM): 4.98 ± 0.28
JAK1 MFI ([3]; no stimulation, drug 200 nM): 177.67 ± 11.84
JAK2 MFI ([3]; no stimulation, drug 200 nM): 25.25 ± 1.04
JAK3 MFI ([3]; no stimulation, drug 200 nM): 0.68 ± 0.17
STAT1 MFI ([3]; no stimulation, drug 200 nM): 554.39 ± 11.80
STAT3 MFI ([3]; no stimulation, drug 200 nM): 746.17 ± 16.73
STAT4 MFI ([3]; no stimulation, drug 200 nM): 4.28 ± 0.61
STAT5A MFI ([3]; no stimulation, drug 200 nM): 1.75 ± 0.44
STAT6 MFI ([3]; no stimulation, drug 200 nM): 762.04 ± 9.44
TYK2 MFI ([3]; no stimulation, drug 200 nM): 217.28 ± 14.28
IL-1α concentration in media [4, 9]: 7.74 ± 0.36 pg/mL
IL-6 concentration in media [4, 9]: 774.87 ± 31.09 pg/mL
IP-10/CXCL10 concentration in media [4, 9]: 3999.39 ± 370.53 pg/mL
MIP1α concentration in media [4, 9]: 101.71 ± 3.84 pg/mL
RANTES concentration in media [4, 9]: 216.88 ± 13.45 pg/mL
IL-1α concentration in media [4, 10]: 7.01 ± 0.39 pg/mL
IL-6 concentration in media [4, 10]: 710.89 ± 36.7 pg/mL
IP-10/CXCL10 concentration in media [4, 10]: 3665.2 ± 277.11 pg/mL
MIP1α concentration in media [4, 10]: 104.54 ± 6.56 pg/mL
RANTES concentration in media [4, 10]: 201.93 ± 15.44 pg/mL
IL-1α concentration in media [4, 11]: 7.27 ± 0.47 pg/mL
IL-6 concentration in media [4, 11]: 690.4 ± 35.25 pg/mL
IP-10/CXCL10 concentration in media [4, 11]: 3860.41 ± 323.05 pg/mL
MIP1α concentration in media [4, 11]: 96.4 ± 4.18 pg/mL
RANTES concentration in media [4, 11]: 207.79 ± 17.38 pg/mL
IL-1α concentration in media [4, 12]: 6.45 ± 0.38 pg/mL
IL-6 concentration in media [4, 12]: 621.79 ± 33.44 pg/mL
IP-10/CXCL10 concentration in media [4, 12]: 3835.78 ± 304.58 pg/mL
MIP1α concentration in media [4, 12]: 98.72 ± 3.87 pg/mL
RANTES concentration in media [4, 12]: 189.62 ± 13.78 pg/mL
IL-1α concentration in media ([4]; no stimulation, drug 200 nM): 0.30 ± 0.05 pg/mL
IL-6 concentration in media ([4]; no stimulation, drug 200 nM): 28.79 ± 2.91 pg/mL
IP-10/CXCL10 concentration in media ([4]; no stimulation, drug 200 nM): 20.23 ± 0.48 pg/mL
MIP1α concentration in media ([4]; no stimulation, drug 200 nM): 2.90 ± 0.21 pg/mL
RANTES concentration in media ([4]; no stimulation, drug 200 nM): 8.61 ± 0.52 pg/mL

Compound: CC(C)(O)c1cc(O[C@H]2CC[C@@H](N3CC(CC#N)(n4cc(-c5ncnc6[nH]ccc56)cn4)C3)CC2)nc(C(F)(F)F)c1 [Compound 20, {1-(cis-4-{[4-(1-hydroxy-1-methylethyl)-6-(trifluoromethyl)pyridin-2-yl]oxy}cyclohexyl)-3-[4-(7H-pyrrolo[2,3-d]pyrimidin-4-yl)-1H-pyrazol-1-yl]azetidin-3-yl}acetonitrile]
pIC50 [1]: > 8.00
JAK2/JAK1 [2]: >10

Compound: N#CCC(C1CCN(c2nc3cccnc3o2)C1)n1cc(-c2ncnc3[nH]ccc23)cn1 (centres unmarked) [Compound 7, 3-(1-[1,3]oxazolo[5,4-b]pyridin-2-ylpyrrolidin-3-yl)-3-[4-(7H-pyrrolo[2,3-d]pyrimidin-4-yl)-1H-pyrazol-1-yl]propanenitrile]
pIC50 [1]: > 8.00
JAK2/JAK1 [2]: >10

Compound: C[C@H](NC(=O)c1cc(F)c(N2CC(CC#N)(n3cc(-c4ncnc5[nH]ccc45)cn3)C2)cc1F)C(F)(F)F [Compound 16, 4-{3-(cyanomethyl)-3-[4-(7H-pyrrolo[2,3-d]pyrimidin-4-yl)-1H-pyrazol-1-yl]azetidin-1-yl}-2,5-difluoro-N-[(1S)-2,2,2-trifluoro-1-methylethyl]benzamide]
pIC50 [1]: > 8.00
JAK2/JAK1 [2]: >10

Compound: N#CCC(C1CCN(c2cccc(Cl)n2)C1)n1cc(-c2ncnc3[nH]ccc23)cn1 (single isomer, unassigned) [Compound 6, 3-[1-(6-chloropyridin-2-yl)pyrrolidin-3-yl]-3-[4-(7H-pyrrolo[2,3-d]pyrimidin-4-yl)-1H-pyrazol-1-yl]propanenitrile]
pIC50 [1]: > 8.00
JAK2/JAK1 [2]: >10

Compound: N#CC[C@]1(n2cc(-c3ncnc4[nH]ccc34)cn2)C[C@H](N2CCC(Oc3cc(CN4CCC[C@@H]4CO)cc(C(F)(F)F)n3)CC2)C1 [Compound 13, {trans-3-(4-{[4-{[(2R)-2-(hydroxymethyl)pyrrolidin-1-yl]methyl}-6-(trifluoromethyl)pyridin-2-yl]oxy}piperidin-1-yl)-1-[4-(7H-pyrrolo[2,3-d]pyrimidin-4-yl)-1H-pyrazol-1-yl]cyclobutyl}acetonitrile]
pIC50 [1]: > 8.00
JAK2/JAK1 [2]: >10

Compound: N#CC[C@]1(n2cc(-c3ncnc4[nH]ccc34)cn2)C[C@H](N2CCC(Oc3cc(CN4CCC[C@H]4CO)cc(C(F)(F)F)n3)CC2)C1 [Compound 12, {trans-3-(4-{[4-{[(2S)-2-(hydroxymethyl)pyrrolidin-1-yl]methyl}-6-(trifluoromethyl)pyridin-2-yl]oxy}piperidin-1-yl)-1-[4-(7H-pyrrolo[2,3-d]pyrimidin-4-yl)-1H-pyrazol-1-yl]cyclobutyl}acetonitrile]
pIC50 [1]: > 8.00
JAK2/JAK1 [2]: >10
